For this experiment, the target named is BRAF^V600E protein (Homo sapiens, UniProt P15056, V600E). Put plainly: HiBiT cellular BRAF V600E degradation assay. Type of experiment: cell-based. As to conditions: 24 h incubation; for DC50: A375.10 cells (HiBiT tag knocked in at N-terminal of BRAF V600E), concentration at which 50% of total cellular BRAF V600E is degraded; for Emax: A375.10 cells, Emax = amount of residual protein remaining in the cell after compound treatment, read-out: HiBit 24 h Emax.

The structures appear in SMILES notation.

Sequence of BRAF^V600E protein (P15056 whole entry V600E): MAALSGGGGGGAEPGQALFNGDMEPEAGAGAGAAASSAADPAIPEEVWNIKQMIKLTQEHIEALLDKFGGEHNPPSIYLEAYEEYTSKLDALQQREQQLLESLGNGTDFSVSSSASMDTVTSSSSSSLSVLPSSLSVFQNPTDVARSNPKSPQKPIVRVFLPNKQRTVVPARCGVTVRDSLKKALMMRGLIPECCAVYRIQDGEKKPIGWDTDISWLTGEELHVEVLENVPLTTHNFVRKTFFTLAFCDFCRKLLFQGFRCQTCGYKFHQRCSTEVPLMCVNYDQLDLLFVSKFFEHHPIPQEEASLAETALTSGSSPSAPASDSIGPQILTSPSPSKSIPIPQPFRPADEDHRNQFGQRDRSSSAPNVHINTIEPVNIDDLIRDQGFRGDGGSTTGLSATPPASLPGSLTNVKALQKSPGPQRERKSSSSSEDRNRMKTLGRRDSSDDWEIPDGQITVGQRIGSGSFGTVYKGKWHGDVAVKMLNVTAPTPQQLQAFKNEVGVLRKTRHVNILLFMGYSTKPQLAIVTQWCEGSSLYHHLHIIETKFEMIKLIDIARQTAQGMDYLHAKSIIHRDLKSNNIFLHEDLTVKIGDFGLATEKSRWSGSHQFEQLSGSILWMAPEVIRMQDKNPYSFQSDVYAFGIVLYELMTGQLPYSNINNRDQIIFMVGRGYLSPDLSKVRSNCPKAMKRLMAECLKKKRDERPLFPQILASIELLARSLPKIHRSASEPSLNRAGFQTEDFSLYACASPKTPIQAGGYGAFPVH

Consider `CCN(C)S(=O)(=O)Nc1ccc(F)c(C(=O)c2c[nH]c3ncc(-c4cnc(N5CCC(NCC(=O)N6CCC(c7ccc(NC8CCC(=O)NC8=O)cn7)CC6)CC5)nc4)cc23)c1F` (stereo not shown) [Example A93, 5-[2-[4-[[2-[4-[5-[(2,6-Dioxopiperidin-3-yl)amino]pyridin-2-yl]piperidin-1-yl]-2-oxoethyl]amino]piperidin-1-yl]pyrimidin-5-yl]-3-[3-[[ethyl(methyl)sulfamoyl]amino]-2,6-difluorobenzoyl]-1H-pyrrolo[2,3-b]pyridine;formic acid], for which the DC50 came to 16 nM and the maximal response (Emax) worked out at 14%.

With `O=C1CCC(Oc2ccc(C3CCN(CC(=O)N4CC5(C4)CN(c4ncc(-c6cnc7[nH]cc(C(=O)c8c(F)ccc(NS(=O)(=O)N9CCCC9)c8F)c7c6)cn4)C5)CC3)cc2)C(=O)N1` (stereo not shown) [Example A119, N-[3-[5-[2-[2-[2-[4-[4-(2,6-Dioxopiperidin-3-yl)oxyphenyl]piperidin-1-yl]acetyl]-2,6-diazaspiro[3.3]heptan-6-yl]pyrimidin-5-yl]-1H-pyrrolo[2,3-b]pyridine-3-carbonyl]-2,4-difluorophenyl]pyrrolidine-1-sulfonamide], the DC50 was determined as 47 nM and the Emax was found to be 12%.

With `CCN(C)S(=O)(=O)Nc1cccc(C(=O)c2c[nH]c3ncc(-c4cnc(N5CCN(C(=O)CC6(O)CCN(c7ccc(NC8CCC(=O)NC8=O)cc7F)C6)CC5)nc4)cc23)c1F` (stereo not shown) [Example 102, 5-[2-[4-[2-[1-[4-[(2,6-dioxo-3-piperidyl)amino]-2-fluoro-phenyl]-3-hydroxy-pyrrolidin-3-yl]acetyl]piperazin-1-yl]pyrimidin-5-yl]-3-[3-[[ethyl(methyl)sulfamoyl]amino]-2-fluoro-benzoyl]-1H-pyrrolo[2,3-b]pyridine], half-maximal degradation (DC50) was put at 6.88 nM and the Emax was 8.28%.

On to `O=C1CCC(c2ccc(C3CCN(CC(=O)N4CCN(c5ccc(-c6cnc7[nH]cc(C(=O)c8c(F)ccc(NS(=O)(=O)N9CCCC9)c8F)c7c6)cc5)CC4)CC3)cc2)C(=O)N1` (stereo not shown) [Example A85, N-[3-[5-[4-[4-[2-[4-[4-(2,6-Dioxopiperidin-3-yl)phenyl]piperidin-1-yl]acetyl]piperazin-1-yl]phenyl]-1H-pyrrolo[2,3-b]pyridine-3-carbonyl]-2,4-difluorophenyl]pyrrolidine-1-sulfonamide], for which the 50% degradation concentration (DC50) came to 16 nM and the Emax amounted to 11%.

With `CCN(C)S(=O)(=O)Nc1ccc(F)c(C(=O)c2c[nH]c3ncc(-c4ccc(N5CCC(NCC(=O)N6CCC(c7ccc(NC8CCC(=O)NC8=O)cc7)CC6)CC5)nc4)cc23)c1F` (stereo not shown) [Example A110, 5-[6-[4-[[2-[4-[4-[(2,6-Dioxopiperidin-3-yl)amino]phenyl]piperidin-1-yl]-2-oxoethyl]amino]piperidin-1-yl]pyridin-3-yl]-3-[3-[[ethyl(methyl)sulfamoyl]amino]-2,6-difluorobenzoyl]-1H-pyrrolo[2,3-b]pyridine;formic acid], the DC50 worked out at 13 nM and the Emax stood at 13%.

Take `O=C(c1c(F)ccc(NS(=O)(=O)N2CCCC2)c1F)c1c[nH]c2ncc(-c3ccc(N4CC5(CN(C(=O)CN6CCC(c7ccc(NC89CC(C8)C(=O)NC9=O)cc7)CC6)C5)C4)cc3)cc12` [Example A117, N-[3-[5-[4-[2-[2-[4-[4-[(2,4-Dioxo-3-azabicyclo[3.1.1]heptan-1-yl)amino]phenyl]piperidin-1-yl]acetyl]-2,6-diazaspiro[3.3]heptan-6-yl]phenyl]-1H-pyrrolo[2,3-b]pyridine-3-carbonyl]-2,4-difluorophenyl]pyrrolidine-1-sulfonamide]: the DC50 was 192 nM and the Emax stood at 24%.

Take `CN(C1CC1)S(=O)(=O)Nc1ccc(F)c(C(=O)c2c[nH]c3ncc(-c4ccc(N5CCN(C(=O)CC6(O)CCN(c7ccc(NC8CCC(=O)NC8=O)cc7F)CC6)CC5)nc4)cc23)c1F` (stereo not shown) [Example 217, 3-[3-[[cyclopropyl(methyl)sulfamoyl]amino]-2,6-difluoro-benzoyl]-5-[6-[4-[2-[1-[4-[(2,6-dioxo-3-piperidyl)amino]-2-fluoro-phenyl]-4-hydroxy-4-piperidyl]acetyl]piperazin-1-yl]-3-pyridyl]-1H-pyrrolo[2,3-b]pyridine]: the half-maximal degradation concentration (DC50) was 62.2 nM and the Emax turned out to be 21%.

Turning to `CCN(C)S(=O)(=O)Nc1ccc(F)c(C(=O)c2c[nH]c3ncc(-c4cnc(N5CCN(C(=O)CN6CCC(N7CCN(C8CCC(=O)NC8=O)C(=O)C7)C(F)(F)C6)CC5)nc4)cc23)c1F` (stereo not shown) [Example 173, 5-[2-[4-[2-[4-[4-(2,6-dioxo-3-piperidyl)-3-oxo-piperazin-1-yl]-3,3-difluoro-1-piperidyl]acetyl]piperazin-1-yl]pyrimidin-5-yl]-3-[3-[[ethyl(methyl)sulfamoyl]amino]-2,6-difluoro-benzoyl]-1H-pyrrolo[2,3-b]pyridine], half-maximal degradation (DC50) was put at 6.37 nM and the Emax is 7.19%.

With `CCN(C)S(=O)(=O)Nc1ccc(F)c(C(=O)c2c[nH]c3ncc(-c4ccc(N5CCN(C(=O)CN6CCC(c7ccc(C8CCC(=O)NC8=O)cc7)CC6)CC5)nc4)cc23)c1F` (stereo not shown) [Example A82, 5-[6-[4-[2-[4-[4-(2,6-Dioxopiperidin-3-yl)phenyl]piperidin-1-yl]acetyl]piperazin-1-yl]pyridin-3-yl]-3-[3-[[ethyl(methyl)sulfamoyl]amino]-2,6-difluorobenzoyl]-1H-pyrrolo[2,3-b]pyridine], it took 7.65 nM to reach half-maximal degradation (DC50) and the Emax is 9.6%.

Turning to `CCN(C)S(=O)(=O)Nc1ccc(F)c(C(=O)c2c[nH]c3ncc(-c4cnc(N5CCN(C(=O)CN6CCC(c7ccc(NC8CCC(=O)NC8=O)cc7)CC6)CC5)nc4)cc23)c1Cl` (stereo not shown) [Example 121, 3-[2-chloro-3-[[ethyl(methyl)sulfamoyl]amino]-6-fluoro-benzoyl]-5-[2-[4-[2-[4-[4-[(2,6-dioxo-3-piperidyl)amino]phenyl]-1-piperidyl]acetyl]piperazin-1-yl]pyrimidin-5-yl]-1H-pyrrolo[2,3-b]pyridine], the DC50 was 2.3 nM and the maximal effect (Emax) turned out to be 4.98%.

For `CCN(C)S(=O)(=O)Nc1ccc(F)c(C(=O)c2c[nH]c3ncc(-c4ccc(N5CCN(C(=O)NC6CCN(c7ccc(NC8CCC(=O)NC8=O)cc7F)CC6)CC5)nc4)cc23)c1F` (stereo not shown) [Example 140, N-[1-[4-[(2,6-dioxo-3-piperidyl)amino]-2-fluoro-phenyl]-4-piperidyl]-4-[5-[3-[3-[[ethyl(methyl)sulfamoyl]amino]-2,6-difluoro-benzoyl]-1H-pyrrolo[2,3-b]pyridin-5-yl]-2-pyridyl]piperazine-1-carboxamide], half-maximal degradation (DC50) was put at 15.2 nM and the Emax is 8.77%.

For the compound `O=C1CCC(c2ccc(C3CCN(CC(=O)N4CC5(C4)CN(c4ncc(-c6cnc7[nH]cc(C(=O)c8c(F)ccc(NS(=O)(=O)N9CCCC9)c8F)c7c6)cn4)C5)CC3)cc2)C(=O)N1` (stereo not shown) [Example A118, N-[3-[5-[2-[2-[2-[4-[4-(2,6-Dioxopiperidin-3-yl)phenyl]piperidin-1-yl]acetyl]-2,6-diazaspiro[3.3]heptan-6-yl]pyrimidin-5-yl]-1H-pyrrolo[2,3-b]pyridine-3-carbonyl]-2,4-difluorophenyl]pyrrolidine-1-sulfonamide], the DC50 was 29 nM and the Emax amounted to 11%.

Consider `CCCS(=O)(=O)Nc1ccc(F)c(C(=O)c2c[nH]c3ncc(-c4ccc(N5CCN(C(=O)CN6CCC(c7ccc(NC8CCC(=O)NC8=O)cc7)CC6)CC5)nc4)cc23)c1F` (stereo not shown) [Example 3, N-[3-[5-[6-[4-[2-[4-[4-[(2,6-dioxo-3-piperidyl)amino]phenyl]-1-piperidyl]acetyl]piperazin-1-yl]-3-pyridyl]-1H-pyrrolo[2,3-b]pyridine-3-carbonyl]-2,4-difluoro-phenyl]propane-1-sulfonamide], for which it took 3.04 nM to reach half-maximal degradation (DC50) and the maximal effect (Emax) turned out to be 9.6%.

On to `CCN(C)S(=O)(=O)Nc1ccc(F)c(C(=O)c2c[nH]c3ncc(-c4ccc(N5CCN(C(=O)CC6(O)CCN(c7ccc(N[C@@H]8CCC(=O)NC8=O)cc7F)CC6)CC5)nc4)cc23)c1F` [Example 177, 5-[6-[4-[2-[1-[4-[[(3R)-2,6-dioxo-3-piperidyl]amino]-2-fluoro-phenyl]-4-hydroxy-4-piperidyl]acetyl]piperazin-1-yl]-3-pyridyl]-3-[3-[[ethyl(methyl)sulfamoyl]amino]-2,6-difluoro-benzoyl]-1H-pyrrolo[2,3-b]pyridine], for which the DC50 was 3.65 nM and the Emax turned out to be 9.99%.

In the case of `CCN(C)S(=O)(=O)Nc1cccc(C(=O)c2c[nH]c3ncc(-c4ccc(N5CCN(C(=O)CC6(O)CCN(c7ccc(NC8CCC(=O)NC8=O)cc7Cl)CC6)CC5)nc4)cc23)c1F` (stereo not shown) [Example 156, 5-[6-[4-[2-[1-[2-chloro-4-[(2,6-dioxo-3-piperidyl)amino]phenyl]-4-hydroxy-4-piperidyl]acetyl]piperazin-1-yl]-3-pyridyl]-3-[3-[[ethyl(methyl)sulfamoyl]amino]-2-fluoro-benzoyl]-1H-pyrrolo[2,3-b]pyridine], the DC50 was 6.82 nM and the Emax amounted to 9.35%.

For the compound `CCN(C)S(=O)(=O)Nc1ccc(F)c(C(=O)c2c[nH]c3ncc(-c4ccc(CN5CCC(C(=O)N6CCC(c7ccc(OC8CCC(=O)NC8=O)cc7)CC6)C5)cc4)cc23)c1F` (stereo not shown) [Example A20, 5-[4-[[3-[4-[4-(2,6-Dioxopiperidin-3-yl)oxyphenyl]piperidine-1-carbonyl]pyrrolidin-1-yl]methyl]phenyl]-3-[3-[[ethyl(methyl)sulfamoyl]amino]-2,6-difluorobenzoyl]-1H-pyrrolo[2,3-b]pyridine], the DC50 is 138 nM and the Emax was determined as 24%.

Turning to `CCN(C)S(=O)(=O)Nc1ccc(F)c(C(=O)c2c[nH]c3ncc(-c4ccc(N5CCN(C(=O)CC6(O)CCN(c7ccc(NC8CCC(=O)NC8=O)cc7F)CC6)CC5)c(C)c4)cc23)c1F` (stereo not shown) [Example 192, 5-[4-[4-[2-[1-[4-[(2,6-dioxo-3-piperidyl)amino]-2-fluoro-phenyl]-4-hydroxy-4-piperidyl]acetyl]piperazin-1-yl]-3-methyl-phenyl]-3-[3-[[ethyl(methyl)sulfamoyl]amino]-2,6-difluoro-benzoyl]-1H-pyrrolo[2,3-b]pyridine], the DC50 was 13.9 nM and the Emax worked out at 8.18%.

Broadly, the DC50 is the concentration giving 50% degradation. The low end stands for degradation at low concentration, the high end for degradation only at high concentration. As usually defined, the Emax is the greatest response seen or fitted, relative to the assay's reference.
